# Measurements: US20240252488A1 (KOREA RESEARCH INSTITUTE OF CHEMICAL TECHNOLOGY, priority 2020, published 2024)
# Counter-ions that a name gives are not always drawn.
# Experiments:
# FADD−/− Jurkat cells = assay: Necroptosis inhibition assay, TNF-α-induced necroptosis (CellTiter-Glo 2.0); assay type: cell-based, human; details: TNF-α 15 ng/mL; for Necroptosis inhibition assay (Rescue %) 1 μM: compound 1 μM; for Necroptosis inhibition assay (Rescue %) 10 μM: compound 10 μM
# Experimental: Necroptosis Inhibition Assay
# Necroptosis inhibition was evaluated by the following method.
# 80 μL of FADD gene-defective human T lymphocyte cells (FADD−/− Jurkat cells) were equally distributed into each well at 5.0×10^5 cells/mL in a white 96-well plate with a transparent bottom. 20 μL of the medium containing test compound was treated in each well so that the final concentration of the compound was 0.1, 1, and 10 μM, and reacted at room temperature for 30 minutes. After the 30-minute reaction was over, TNF (tumor necrosis factor)-α was treated in the corresponding well so that the final concentration of TNF-α was 15 ng/mL in order to induce necroptosis. It was cultured in a 5% CO2, 37° C. incubator for 20 to 24 hours.
# After incubation, the 96-well plate was left at room temperature for 30 minutes. After 30 minutes, Promega's CellTiter-Glo 2.0 reagent was diluted 1:3 with PBS and 100 μL of the diluted solution was added to each well to confirm cell viability by measuring the amount of ATP. After the treatment, the plate was shielded from light and incubated at room temperature for 2 minutes with orbital shaking, and then left at room temperature for 10 minutes without shaking. After measuring the luminescence at 0.5 seconds per well using a plate scanner, the cytotoxicity and necroptosis inhibition rate for the compound were calculated using the measured values.
# MLKL = target: T1, MLKL (Homo sapiens, UniProt Q8NB16); assay: Measurement of binding affinity with MLKL receptor (competitive binding assay, Kd); set-up: made in house; host or cells: HEK 293 cell line (T7 phage in E. coli BL21-derived host is also described)
# T1 sequence (Q8NB16 1-471): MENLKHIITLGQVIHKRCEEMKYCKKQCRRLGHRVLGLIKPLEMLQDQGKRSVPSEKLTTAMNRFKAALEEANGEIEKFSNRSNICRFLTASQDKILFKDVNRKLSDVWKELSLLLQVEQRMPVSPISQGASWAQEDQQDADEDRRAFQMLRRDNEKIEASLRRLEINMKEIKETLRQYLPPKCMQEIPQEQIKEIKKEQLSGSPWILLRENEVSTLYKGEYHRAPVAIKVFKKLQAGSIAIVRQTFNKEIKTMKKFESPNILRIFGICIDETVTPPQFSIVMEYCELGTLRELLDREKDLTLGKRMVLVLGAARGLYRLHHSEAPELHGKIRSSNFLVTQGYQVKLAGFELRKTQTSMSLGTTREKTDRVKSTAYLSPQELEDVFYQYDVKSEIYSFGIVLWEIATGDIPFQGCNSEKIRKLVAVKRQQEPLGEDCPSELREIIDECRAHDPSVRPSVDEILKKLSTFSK
# Experimental: Measurement of Binding Affinity with MLKL Receptor (Competitive Binding Assay)
# The binding affinity was evaluated by measuring the Kd value in the following method.
# To prepare kinase-tagged T7 phage strains in an E. coli host derived from the BL21 strain, E. coli were grown to log-phase and infected with T7 phage and incubated with shaking at 32° C. until lysis. The lysates were centrifuged and filtered to remove cell debris. For kinase production, it was expressed in human embryonic kidney cell line (HEK 293 cell line), and subsequently tagged with DNA for qPCR detection.
# The liganded beads were blocked with excess biotin and washed with blocking buffer (SeaBlock (Pierce), 1% BSA, 0.05% Tween 20, 1 mM DTT) to remove unbound ligand and to reduce non-specific binding. […] Test compounds were prepared as 111× stocks in 100% DMSO.
# The compounds were then diluted directly into the assays such that the final concentration of DMSO was 0.9%. All reactions performed in polypropylene 384-well plate. Each was a final volume of 0.02 ml. […] The kinase concentration in the eluates was measured by qPCR.
Compound,Necroptosis inhibition assay (Rescue %) 1 μM (FADD−/− Jurkat cells),Kd (MLKL),Necroptosis inhibition assay (Rescue %) 10 μM (FADD−/− Jurkat cells)
"Nc1nccnc1C(=O)O[C@H](C(=O)Nc1ccc(F)cc1)c1ccccc1 [TDH-002, (S)-2-((4-fluorophenyl)amino)-2-oxo-1-phenylethyl 3-aminopyrazine-2-carboxylate]",6.35%,> 10000 nM,–
"Nc1ncc(C2=CCN(C(=O)CCCCCNC(=O)CNc3ccc4c(c3)C(=O)N(C3CCC(=O)NC3=O)C4=O)CC2)cc1C(=O)O[C@@H](C(=O)Nc1ccc(F)cc1)c1ccccc1 (stereo partly drawn) [TDH-072, (R)-2-((4-fluorophenyl)amino)-2-oxo-1-phenylethyl 6-amino-1′-(6-(2-((2-(2,6-dioxopiperidin-3-yl)-1,3-dioxoisoindolin-5-yl)amino)acetamido)hexanoyl)-1′,2′,3′,6′-tetrahydro-[3,4′-bipyridine]-5-carboxylate]",12.25%,30 nM,1.53%
"Nc1ncc(C2=CCN(C(=O)CCCCCNc3cccc4c3C(=O)N(C3CCC(=O)NC3=O)C4=O)CC2)cc1C(=O)O[C@@H](C(=O)Nc1ccc(F)cc1)c1ccccc1 (stereo partly drawn) [TDH-073, (R)-2-((4-fluorophenyl)amino)-2-oxo-1-phenylethyl 6-amino-1′-(6-((2-(2,6-dioxopiperidin-3-yl)-1,3-dioxoisoindolin-4-yl)amino)hexanoyl)-1′,2′,3′,6′-tetrahydro-[3,4′-bipyridine]-5-carboxylate]",–,210 nM,3.26%
"Nc1ncc(C2=CCN(C(=O)CCCCCNC(=O)C3CCN(c4ccc5c(c4)C(=O)N(C4CCC(=O)NC4=O)C5=O)CC3)CC2)cc1C(=O)O[C@@H](C(=O)Nc1ccc(F)cc1)c1ccccc1 (stereo partly drawn) [TDH-074, (R)-2-((4-fluorophenyl)amino)-2-oxo-1-phenylethyl 6-amino-1′-(6-(1-(2-(2,6-dioxopiperidin-3-yl)-1,3-dioxoisoindolin-5-yl)piperidine-4-carboxamido)hexanoyl)-1′,2′,3′,6′-tetrahydro-[3,4′-bipyridine]-5-carboxylate]",14.54%,74 nM,3.61%
"Nc1ncc(C2=CCN(C(=O)CCCCCNc3ccc4c(c3)C(=O)N(C3CCC(=O)NC3=O)C4=O)CC2)cc1C(=O)O[C@@H](C(=O)Nc1ccc(F)cc1)c1ccccc1 (stereo partly drawn) [TDH-075, (R)-2-((4-fluorophenyl)amino)-2-oxo-1-phenylethyl 6-amino-1′-(6-((2-(2,6-dioxopiperidin-3-yl)-1,3-dioxoisoindolin-5-yl)amino)hexanoyl)-1′,2′,3′,6′-tetrahydro-[3,4′-bipyridine]-5-carboxylate]",10.02%,140 nM,9.05%
"CC(=O)N1CC[C@@H](n2cc(-c3cnc(N)c(C(=O)OC(C(=O)Nc4ccc(F)cc4)c4ccccc4)n3)cn2)C1 (stereo partly drawn) [TDH-229, 2-((4-fluorophenyl)amino)-2-oxo-1-phenylethyl 6-(1-((R)-1-acetylpyrrolidin-3-yl)-1H-pyrazol-4-yl)-3-aminopyrazine-2-carboxylate]",–,1.1 nM,–
"Cc1ccc(NC(=O)[C@H](OC(=O)c2nc(-c3cnn(C4CCNCC4)c3)cnc2N)c2ccccc2)cc1 [TDH-319, (R)-2-oxo-1-phenyl-2-(p-tolylamino)ethyl 3-amino-6-(1-(piperidin-4-yl)-1H-pyrazol-4-yl)pyrazine-2-carboxylate hydrochloride]",–,0.82 nM,–
"Cc1ccc([C@@H](OC(=O)c2nc(-c3cnn(C4CCNCC4)c3)cnc2N)C(=O)Nc2ccc(F)cc2)cc1 [TDH-320, (R)-2-((4-fluorophenyl)amino)-2-oxo-1-(p-tolyl)ethyl 3-amino-6-(1-(piperidin-4-yl)-1H-pyrazol-4-yl)pyrazine-2-carboxylate hydrochloride]",–,1.7 nM,–
"CC(=O)N1CCC(n2cc(-c3cnc(N)c(C(=O)O[C@@H](C(=O)Nc4ccc(F)cc4)c4ccc(Cl)cc4)n3)cn2)CC1 [TDH-325, (R)-1-(4-chlorophenyl)-2-((4-fluorophenyl)amino)-2-oxoethyl 6-(1-(1-acetylpiperidin-4-yl)-1H-pyrazol-4-yl)-3-aminopyrazine-2-carboxylate]",–,1.1 nM,–
"CC1CCC(NC(=O)[C@H](OC(=O)c2nc(-c3cnn(C4CCNCC4)c3)cnc2N)c2ccccc2)CC1 (stereo partly drawn) [TDH-424, (R)-2-((4-methylcyclohexyl)amino)-2-oxo-1-phenylethyl 3-amino-6-(1-(piperidin-4-yl)-1H-pyrazol-4-yl)pyrazine-2-carboxylate hydrochloride]",–,5.1 nM,–
"Nc1ncc(-c2cnn(C3CCNCC3)c2)nc1C(=O)O[C@@H](C(=O)Nc1ccc(C(F)(F)F)cc1)c1ccccc1 [TDH-459, (R)-2-oxo-1-phenyl-2-((4-(trifluoromethyl)phenyl)amino)ethyl 3-amino-6-(1-(piperidin-4-yl)-1H-pyrazol-4-yl)pyrazine-2-carboxylate hydrochloride]",–,6.5 nM,–
"Nc1ncc(-c2cnn(C3CCNCC3)c2)nc1C(=O)O[C@@H](C(=O)Nc1ccccc1)c1ccccc1 [TDH-463, (R)-2-oxo-1-phenyl-2-(phenylamino)ethyl 3-amino-6-(1-(piperidin-4-yl)-1H-pyrazol-4-yl)pyrazine-2-carboxylate hydrochloride]",–,0.35 nM,–
"Nc1ncc(-c2cnn(C3CCNCC3)c2)nc1C(=O)O[C@@H](C(=O)Nc1cccnc1)c1ccccc1 [TDH-468, (R)-2-oxo-1-phenyl-2-(pyridin-3-ylamino)ethyl 3-amino-6-(1-(piperidin-4-yl)-1H-pyrazol-4-yl)pyrazine-2-carboxylate hydrochloride]",–,1.7 nM,–
"CN(C)c1ccc(NC(=O)[C@H](OC(=O)c2nc(-c3cnn(C4CCNCC4)c3)cnc2N)c2ccccc2)cc1 [TDH-470, (R)-2-((4-(dimethylamino)phenyl)amino)-2-oxo-1-phenylethyl 3-amino-6-(1-(piperidin-4-yl)-1H-pyrazol-4-yl)pyrazine-2-carboxylate hydrochloride]",–,3.8 nM,–
"Nc1ncc(-c2cnn(C3CCNCC3)c2)nc1C(=O)O[C@@H](C(=O)Nc1ccncc1)c1ccccc1 [TDH-479, (R)-2-oxo-1-phenyl-2-(pyridin-4-ylamino)ethyl 3-amino-6-(1-(piperidin-4-yl)-1H-pyrazol-4-yl)pyrazine-2-carboxylate--2,2,2-trifluoroacetaldehyde]",–,5.6 nM,–
"Nc1ncc(-c2cnn(C3CCNCC3)c2)nc1C(=O)OC(C(=O)Nc1ccc(F)cc1)c1ccc(F)cc1 (centres unmarked) [TDH-489, 1-(4-fluorophenyl)-2-((4-fluorophenyl)amino)-2-oxoethyl 3-amino-6-(1-(piperidin-4-yl)-1H-pyrazol-4-yl)pyrazine-2-carboxylate hydrochloride]",–,1.2 nM,–
"CN(C(=O)c1nc(-c2cnn(C3CCNCC3)c2)cnc1N)[C@@H](C(=O)Nc1ccc(F)cc1)c1ccccc1 [TDH-490, (R)-3-amino-N-(2-((4-fluorophenyl)amino)-2-oxo-1-phenylethyl)-N-methyl-6-(1-(piperidin-4-yl)-1H-pyrazol-4-yl)pyrazine-2-carboxamide hydrochloride]",–,400 nM,–
Nc1ncc(-c2cnn(C3CCNCC3)c2)nc1C(=O)O[C@@H](C(=O)Nc1ccc(F)cc1)c1cccc(Cl)c1 [hydrochloride],–,2 nM,–
